One assay deals with human Topoisomerase-II. As to the kind of experiment: Topoisomerase II decatenation assay. It counts as biochemical. Here is the method:
The Topoisomerase II drug screening kit (kDNA-based; TopoGEN, TG1009-1A) was used to assess in vitro Topo II enzyme activity according to the manufacture protocol. Assays were performed in […] reactions with 4 μL of 5× Assay Buffer (0.25 M Tris-HCl (pH 8), 10 mM ATP, 0.75 M NaCl, 50 mM MgCl2, 2.5 mM Dithiothreitol, 150 mg/ml BSA), 1 mL kDNA ([…]), 1 mL DMSO solvent or compounds at indicated concentrations, 1 mL Topoisomerase II (2 Units), 13 mL water. Assays were incubated at 37° C. for 30 min and stopped by addition of 2 mL 10% SDS and Proteinase K (50 mg/ml). After incubating at 37° C. for 15 min, samples were mixed with 1/10 volume of loading buffer and resolved on a 1% agarose gel.

For assay [1], the system named is Psn1, H460 and 143B tumor lines. In words: CellTiter-Glo viability, tumor lines. It counts as cell-based, human. Here is the method: Human keratinocytes (HaCaT; RRID:CVCL_0038), 143B cells (osteosarcoma; RRID:CVCL_2270), and HEK-293T (RRID:CVCL_0063) cells were maintained in Dulbecco's Modified Eagle's Medium (DMEM) supplemented with 10% fetal bovine serum (FBS; Peak Serum, PS-FB-2). Human Psn1 (pancreatic ductal adenocarcinoma; RRID:CVCL_1644) and H460 (non-small cell lung carcinoma; RRID:CVCL_0459) cells were cultured in RPMI-1640 medium supplemented with 10% FBS. HaCaT cells were synchronized in Go using serum starvation for 48 hr and released into the cell cycle by addition of DMEM with 10% FBS (51). Novobiocin (cat #46531) and Courmermycin-A1 (cat #C9270) were obtained from Sigma. Etoposide (cat #S1225) and AT7519 (cat #S1524) were obtained from SelleckChem. All stock solutions of inhibitors were stored at −20° C. as 10 mM suspensions in DMSO.
(§1) Cell viability determinations were performed using CellTiter-Glo Assays (Promega; cat #G7572). Cells were seeded in 96-well plates at a density of ~3×10^3 cells/well and treated with drugs for 72 hr, after which the cells were processed for viability using CellTiter-Glo reagent according to the instructions of the manufacturer. Each drug concentration test was performed using four replicates, and results averaged and plotted on graphs, +/−1 s.d.
In general terms: Cellular ATP, detected with luciferase, serves as a proxy for viable cell number.

Assay [2] has as its system Dbf4-Cdc7 (DDK); Mcm2 S53 and S139. In words: Immunoblot of DDK-dependent Mcm2 phosphorylation, HaCaT cells. The assay is classed as cell-based, human. As to conditions: extended exposure (18 hrs). Here is the method:
(§2) Immunoblots of total proteins from synchronized HaCaT cells treated with compounds at time of release (0 hr; beginning of G1 phase) and collected after 18 hrs of exposure. (FIG. 5A) DDK-dependent phosphorylation sites on Mcm2 were analyzed with phospho-specific antibodies. (FIG. 5B) Cdk1- and Cdk2-dependent targets (Rb, Cdc6, and PP1α) were analyzed with phospho-specific antibodies.
A general note: In western blotting, separated proteins are transferred to a membrane and probed.

In assay [3] the test system is Cdk1 and Cdk2 targets (Rb, Cdc6, PP1a). As to the kind of experiment: Immunoblot of Cdk1/Cdk2-dependent targets, HaCaT cells. It counts as cell-based, human. As to conditions: extended exposure (18 hrs). On the procedure:
as §2

In assay [4] the test system is hCMG complexes immunoprecipitated from HaCaT cells. As to the kind of experiment: Co-immunoprecipitation, HaCaT nuclear extract. The assay is classed as biochemical, human. As to conditions: 15 μM, 30 min. Here is the method:
Nuclear extracts were prepared from synchronized HaCaT cells after releasing into S-phase (at 20 hrs post release) or HEK-293T cells expressing stable Flag-Mcm2 protein (human). Cells from one 10 cm dish were resuspended in […] of Buffer A (10 mM Hepes-KOH pH 7.5, 10 mM KCl, 1.5 mM MgCl2, 0.34 M sucrose, 10% glycerol, protease inhibitors, and 0.1% Triton-X-100) and incubated on ice for 5 min. The nuclear pellet was obtained by centrifugation at 4,000 rpm at 4° C. for 5 min and washed with the Buffer A without Triton X-100. The nuclear extract was obtained by resuspending the nuclear pellet in […] of Buffer A containing 420 mM potassium acetate and 0.01% Triton X-100, and incubating at 4° C. for 1 hr. The final concentration of potassium acetate in nuclear extracts was adjusted to 200 mM for the co-immunoprecipitation assays. For the co-immunoprecipitation assays, […] of indicated antibody [anti-Mcm2, anti-Psf1, or rabbit IgG (Sigma)], or 30 mL of mouse IgG or anti-Flag agarose beads (Sigma), was incubated with […] of nuclear extract at 4° C. for 4 hrs. Protein A/G agarose beads (30 mL, Santa Cruz, sc-2003) were added and incubated for 1 hr with antibodies. Agarose beads were washed once in Buffer A containing 200 mM potassium acetate and 0.01% Triton X-100 and incubated with 15 μM CA1 or DMSO (same concentration as in CA1 sample) for 30 min. Beads were washed in the same buffer and analyzed by immunoblotting with indicated antibodies.

Assay [5] deals with CMG proteins in 143B cells. In words: Immunoblot of chromatin-bound proteins, asynchronous 143B OS cells. It counts as cell-based, human. To be noted: 24 hrs. On the procedure: (§3) FIGS. 7A-7C depict that CMGi induce DNA damage and selectively reduce tumor cell viability. (FIG. 7A) Cell Titer Glo viability assays for CA1/CMGi sensitivity were performed on 143B (OS), Psn1 (PDAC), and H460 (NSCLC) tumor lines. Novobiocin was tested against 143B cells as a comparison. (FIG. 7B) Immunoblot of chromatin-bound proteins (as indicated) from asynchronous 143B OS cells treated with 10 μM novobiocin or increasing concentrations of CA1 for 24 hrs. (FIG. 7C) Immunoblot of total proteins from Psn1, H460, 143B, and HaCaT cells treated with 5 μM CA1/CMGi or DMSO/novobiocin controls, or HaCaT treated with 15 μM CA1/CMGi (right side). The Psn1 and H460 cells were treated for 24 hrs, and 143B and HaCaT cells were treated for 48 hrs. Probing of blots was done with anti-gamma-H2AX (DNA damage signal) or anti-cleaved-Parp (apoptotic indicator). Anti-GAPDH is a loading control.

Assay [6] deals with Psn1, H460 and 143B tumor lines. As to the kind of experiment: DNA damage (gamma-H2AX) and apoptosis (cleaved Parp) immunoblot, tumor lines. It counts as cell-based, human. As to conditions: 5 μM. On the procedure:
as §3

In assay [7] the test system is bacterial type-2 topoisomerase, gyrase. As to conditions: cited from earlier work.
The subject of the next assay is 143B cells. As to the kind of experiment: CellTiter-Glo viability, 143B. It counts as cell-based, human. As to conditions: 72 hr. Here is the method: as §3, §1

The text below walks through data of US20260306641A1, “HELICASE DEGRADERS” (priority 2023, published 2026).

SMILES strings stand for the structures.

Turning to `CO[C@@H]1[C@@H](OC(=O)c2ccc(C)[nH]2)[C@@H](O)[C@H](Oc2ccc3c(O)c(NC(=O)c4c[nH]c(C(=O)Nc5c(O)c6ccc(O[C@@H]7OC(C)(C)[C@H](OC)[C@@H](OC(=O)c8ccc(C)[nH]8)[C@H]7O)c(C)c6oc5=O)c4C)c(=O)oc3c2C)OC1(C)C` [CA1], the “CA1 concentration required for human Topo-II inhibition relative to that required to block CMG activity” value in the assay on human Topoisomerase-II (decatenation assay in vitro) is ~ 10 fold. For the same compound, in the assay with human Topoisomerase-II (low concentrations used in cell-based experiments), the “human Topoisomerase-II inhibition” value was “no inhibitory effect on human Topoisomerase-II at low concentrations”. The IC50 – broadly, the concentration at which inhibition is half-maximal – in assay [1] (Homo sapiens, 72 hr, all three tumor lines (Psn1, H460, 143B), read-out: tumor line viability IC50 estimates) was 1 to 4 µM. In [1] (Psn1, H460, 143B vs HaCaT, 4320 min), the “sensitivity of tumor lines relative to HaCaT” value was 4-10 times. Also, the “Mcm2 S53 and S139 phosphorylation” value in [2] is recorded as “no phosphorylation changes”. For the same compound, in [3], the “phosphorylation of Cdk2 targets Rb, Cdc6 (S54P) and Cdk1 target PP1a” value is on record as “no effect on these substrates”. Also, in assay [4] (Mcm2 IP), the “Cdc45 association with MCMs” value is recorded as “causes Cdc45 to dissociate from MCMs” and the MCM complexes entry is “does not disrupt MCM complexes”. In assay [4] (Psf1 IP), the “Mcm2 and Mcm6 interactions with GINS” value is listed as “abolished”; the Psf1-3 interactions entry is recorded as “did not disrupt Psf1-3 interactions”. Further, the MCM levels entry in [5] (higher CA1 doses) was “MCM levels start to diminish”. In addition, in assay [5] (low micromolar CA1), the RPA levels result is “reducing RPA levels in a dose-dependent manner”; the “chromatin-bound levels of Cdc45, Psf1 and Psf2” value was “reducing the chromatin-bound levels of Cdc45, Psf1, and Psf2”. Moreover, in assay [6], the “gamma-H2AX and Parp cleavage, tumor lines vs HaCaT” value was “tumor cell-specific increase in DNA damage signals (gamma-H2AX surrogate) and Parp cleavage”. Moreover, the gyrase inhibition entry in assay [7] is on record as “known to inhibit the bacterial type-2 topoisomerase, gyrase”.

On to `CO[C@@H]1[C@@H](OC(N)=O)[C@@H](O)[C@H](Oc2ccc3c(O)c(NC(=O)c4ccc(O)c(CC=C(C)C)c4)c(=O)oc3c2C)OC1(C)C` [novobiocin], for which the “human Topoisomerase-II inhibition” value in the assay with human Topoisomerase-II (1 mM) is reported as “no effect at 1 mM”. Besides, the “effect on tumor cell viability” value in the assay on 143B cells was “little effect until higher concentrations are tested”.
